Results as given in patent publication US20250313535A1, “ALPHA 4 BETA 7 INTEGRIN MODULATORS AND USES THEREOF” (DICE MOLECULES SV, INC., priority 2022, published 2025).

What was measured:
α4β7 integrin = α4β7 integrin (Homo sapiens (Human), UniProt P13612+P26010); test: Integrin Adhesion Assay: Protocol 4 (MAdCAM-coated plate, RPMI-8866 cells with stable LOF mutation of the ITGB1 gene); assay type: cell-based; details: Protocol 4; RPMI-8866 cells with LOF mutation of ITGB1, MAdCAM; read-out: Mean IC50 α4β7 KO
α4β7 integrin, sequence (P13612 34-1032): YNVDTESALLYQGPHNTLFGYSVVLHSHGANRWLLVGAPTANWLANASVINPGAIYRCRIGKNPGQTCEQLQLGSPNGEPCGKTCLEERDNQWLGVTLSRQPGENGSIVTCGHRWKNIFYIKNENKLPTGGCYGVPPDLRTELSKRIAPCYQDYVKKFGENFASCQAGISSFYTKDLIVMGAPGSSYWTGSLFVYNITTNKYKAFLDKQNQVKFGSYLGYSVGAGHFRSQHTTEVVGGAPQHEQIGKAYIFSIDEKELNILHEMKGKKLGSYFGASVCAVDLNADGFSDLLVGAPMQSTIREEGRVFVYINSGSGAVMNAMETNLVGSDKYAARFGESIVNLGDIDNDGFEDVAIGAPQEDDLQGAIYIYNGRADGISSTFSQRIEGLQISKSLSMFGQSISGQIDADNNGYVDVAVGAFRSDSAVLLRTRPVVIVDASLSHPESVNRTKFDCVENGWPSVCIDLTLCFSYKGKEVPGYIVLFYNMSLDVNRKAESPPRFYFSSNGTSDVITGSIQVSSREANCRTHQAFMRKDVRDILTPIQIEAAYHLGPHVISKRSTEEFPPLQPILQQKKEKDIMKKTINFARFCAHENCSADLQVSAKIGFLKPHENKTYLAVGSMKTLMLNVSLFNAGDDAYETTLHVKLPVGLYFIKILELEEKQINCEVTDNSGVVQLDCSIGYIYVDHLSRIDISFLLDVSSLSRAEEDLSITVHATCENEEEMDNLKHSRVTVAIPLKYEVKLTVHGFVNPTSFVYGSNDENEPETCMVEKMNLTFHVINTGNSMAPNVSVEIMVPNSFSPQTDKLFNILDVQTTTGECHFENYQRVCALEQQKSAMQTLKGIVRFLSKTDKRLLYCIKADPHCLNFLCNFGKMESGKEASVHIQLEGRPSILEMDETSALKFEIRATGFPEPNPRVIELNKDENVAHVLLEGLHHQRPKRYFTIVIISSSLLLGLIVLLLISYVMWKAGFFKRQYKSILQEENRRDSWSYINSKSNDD
α4β7 integrin, sequence (P26010 20-798): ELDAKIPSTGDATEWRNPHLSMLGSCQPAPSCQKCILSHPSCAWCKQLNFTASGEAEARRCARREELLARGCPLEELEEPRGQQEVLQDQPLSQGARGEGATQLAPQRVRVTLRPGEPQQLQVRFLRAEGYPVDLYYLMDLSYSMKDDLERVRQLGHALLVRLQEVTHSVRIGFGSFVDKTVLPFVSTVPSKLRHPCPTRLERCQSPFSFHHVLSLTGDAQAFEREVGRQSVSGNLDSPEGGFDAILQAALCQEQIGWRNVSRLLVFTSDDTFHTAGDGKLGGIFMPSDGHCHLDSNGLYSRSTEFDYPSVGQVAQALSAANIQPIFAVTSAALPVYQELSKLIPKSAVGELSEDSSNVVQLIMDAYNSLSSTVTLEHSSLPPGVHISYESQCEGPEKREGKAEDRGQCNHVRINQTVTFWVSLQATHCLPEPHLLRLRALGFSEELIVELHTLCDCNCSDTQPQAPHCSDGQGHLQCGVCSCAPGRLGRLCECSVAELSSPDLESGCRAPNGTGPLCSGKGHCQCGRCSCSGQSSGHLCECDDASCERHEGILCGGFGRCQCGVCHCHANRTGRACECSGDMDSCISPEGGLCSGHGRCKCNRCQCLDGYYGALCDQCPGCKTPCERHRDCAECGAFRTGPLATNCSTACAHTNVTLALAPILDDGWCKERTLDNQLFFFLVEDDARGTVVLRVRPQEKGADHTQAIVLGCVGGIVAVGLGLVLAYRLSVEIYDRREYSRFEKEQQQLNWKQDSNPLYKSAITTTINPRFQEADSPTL
Method in brief: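 RPMI-8866 cells with CRISPR/Cas9 knockout of ITGB1 (2×10^6/mL) were added to MAdCAM-coated wells with compound (1% DMSO) in HEPES/NaCl buffer with 1 mM MnCl2, 0.1 mM CaCl2 and 1% BSA, then incubated 1 h at 37 °C. After four washes, adherent cells were quantified by CellTiter-Glo luminescence. Percent inhibition versus DMSO and control compound was fitted to 4-parameter curves.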

α4β1 integrin = α4β1 integrin (Homo sapiens (Human), UniProt P05556+P13612); test: Integrin Adhesion Assay: Protocol 5 (VCAM-coated plate, RPMI-8866 cells with stable LOF mutation of the ITGB7 gene); assay type: cell-based; details: Protocol 5; RPMI-8866 cells with LOF mutation of ITGB7, VCAM; read-out: Mean IC50 α4β1 KO
α4β1 integrin, sequence (P13612 34-1032): as the sequence (P13612 34-1032) above
α4β1 integrin, sequence (P05556 21-798): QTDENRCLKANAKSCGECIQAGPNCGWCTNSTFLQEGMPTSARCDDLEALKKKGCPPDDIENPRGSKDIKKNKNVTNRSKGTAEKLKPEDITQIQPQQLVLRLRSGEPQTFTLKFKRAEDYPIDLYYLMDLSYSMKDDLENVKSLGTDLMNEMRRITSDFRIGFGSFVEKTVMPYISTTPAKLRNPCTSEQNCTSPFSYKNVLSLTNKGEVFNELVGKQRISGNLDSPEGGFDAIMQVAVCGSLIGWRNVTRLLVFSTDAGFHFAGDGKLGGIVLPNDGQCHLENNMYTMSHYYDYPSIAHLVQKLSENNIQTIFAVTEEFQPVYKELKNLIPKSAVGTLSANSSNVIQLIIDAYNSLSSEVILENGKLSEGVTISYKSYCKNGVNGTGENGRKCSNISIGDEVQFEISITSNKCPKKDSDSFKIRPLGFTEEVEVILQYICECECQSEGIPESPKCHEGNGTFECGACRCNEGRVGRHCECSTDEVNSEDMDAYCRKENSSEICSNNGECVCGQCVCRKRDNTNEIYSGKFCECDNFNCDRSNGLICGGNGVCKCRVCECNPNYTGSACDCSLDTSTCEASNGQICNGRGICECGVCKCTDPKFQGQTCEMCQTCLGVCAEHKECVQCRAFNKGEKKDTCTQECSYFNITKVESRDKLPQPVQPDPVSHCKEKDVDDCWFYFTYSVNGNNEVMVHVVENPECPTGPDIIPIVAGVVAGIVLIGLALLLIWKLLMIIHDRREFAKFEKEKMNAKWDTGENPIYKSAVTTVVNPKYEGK
Method in brief: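 RPMI-8866 B cells with CRISPR/Cas9 ITGB7 knockout (clonal, verified by flow cytometry) adhered to VCAM-coated wells for 1 h at 37° C in HEPES/NaCl buffer with 1 mM MnCl2, 0.1 mM CaCl2, 1% BSA, 1% DMSO. Bound cells quantified by CellTiter-Glo luminescence after washing; % inhibition versus DMSO and control, 4-parameter fit.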

SMILES	IC50 (α4β7 integrin) [µM]	IC50 (α4β1 integrin) [µM]
O=C(O)[C@H](Cc1cccc2c(-c3ncc(CN4CCN(C5CC5)CC4)c4ccccc34)cccc12)NC(=O)C1(C(F)(F)F)CCN(CC(F)F)CC1 [Compound 901]	< 0.01	0.1 to 1
Cc1cc(CN2CCC(C)(C)CC2)cnc1-c1cccc2c(C[C@H](NC(=O)C3(C(F)(F)F)CCN(CC(F)F)CC3)C(=O)O)cccc12 [Compound 902]	< 0.01	> 1
O=C(O)[C@H](Cc1cccc2c(-c3ccc(CN4CCCCC4)cn3)cccc12)NC(=O)C1(C(F)(F)F)CCN(CC(F)(F)F)CC1 [Compound 903]	0.01 to 0.1	> 1
O=C(O)[C@H](Cc1cccc2c(-c3ncc(CN4CCCC5(CC5)C4)c4ccccc34)cccc12)NC(=O)C1(C(F)(F)F)CCN(CC(F)(F)F)CC1 [Compound 904]	< 0.01	0.1 to 1
O=C(O)[C@H](Cc1cccc2c(-c3ncc(CN4CCC(F)CC4)c4ccccc34)cccc12)NC(=O)C1(C(F)(F)F)CCN(CC(F)F)CC1 [Compound 905]	< 0.01	> 1
O=C(O)[C@H](Cc1cccc2c(-c3ncc(CN4CC5CC(C5)C4)c4ccccc34)cccc12)NC(=O)C1(C(F)(F)F)CCN(CC(F)F)CC1 [Compound 907]	< 0.01	> 1
O=C(O)[C@H](Cc1cccc2c(-c3ncc(CN4CC5(CC5)C4)c4ccccc34)cccc12)NC(=O)C1(C(F)(F)F)CCN(CC(F)F)CC1 [Compound 908]	< 0.01	0.1 to 1
O=C(O)[C@H](Cc1cccc2c(-c3ncc(CN4CCC5(CCC5)C4)c4ccccc34)cccc12)NC(=O)C1(C(F)(F)F)CCN(CC(F)F)CC1 [Compound 909]	< 0.01	0.1 to 1
CC1(C)CCCN(Cc2cnc(-c3cccc4c(C[C@H](NC(=O)C5(C(F)(F)F)CCN(CC(F)F)CC5)C(=O)O)cccc34)c3ccccc23)C1 [Compound 910]	< 0.01	> 1
O=C(O)[C@H](Cc1cccc2c(-c3ncc(CN4C5CCCC4CC5)c4ccccc34)cccc12)NC(=O)C1(C(F)(F)F)CCN(CC(F)F)CC1 [Compound 911]	< 0.01	> 1
O=C(O)[C@H](Cc1cccc2c(-c3ncc(CN4CCC5(CC4)CC5)c4ccccc34)cccc12)NC(=O)C1(C(F)(F)F)CCN(CC(F)F)CC1 [Compound 912]	< 0.01	> 1
O=C(O)[C@H](Cc1cccc2c(-c3ncc(CN4CCOCC45CC5)c4ccccc34)cccc12)NC(=O)C1(C(F)(F)F)CCN(CC(F)F)CC1 [Compound 914]	< 0.01	0.1 to 1
O=C(O)[C@H](Cc1cccc2c(-c3ncc(CN4CCCC(F)(F)CC4)c4ccccc34)cccc12)NC(=O)C1(C(F)(F)F)CCN(CC(F)F)CC1 [Compound 915]	< 0.01	> 1
CC1(C)CCCN(Cc2cnc(-c3cccc4c(C[C@H](NC(=O)C5(C(F)(F)F)CCN(CC(F)F)CC5)C(=O)O)cccc34)c3ccccc23)CC1 [Compound 916]	< 0.01	0.1 to 1
O=C(O)[C@H](Cc1cccc2c(-c3ncc(CN4CCCC4)c4ccccc34)cccc12)NC(=O)C1(C(F)(F)F)CCN(CC(F)F)CC1 [Compound 917]	< 0.01	0.1 to 1
O=C(O)[C@H](Cc1cccc2c(-c3ncc(CN4CCCC4)c4ccccc34)cccc12)NC(=O)C1(C(F)(F)F)CCN(CC(F)(F)F)CC1 [Compound 918]	< 0.01	> 1
O=C(O)[C@H](Cc1cccc2c(-c3ncc(CN4CCC4)c4ccccc34)cccc12)NC(=O)C1(C(F)(F)F)CCN(CC(F)(F)F)CC1 [Compound 919]	< 0.01	> 1
O=C(O)[C@H](Cc1cccc2c(-c3ncc(CN4CCC4)c4ccccc34)cccc12)NC(=O)C1(C(F)(F)F)CCN(CC(F)F)CC1 [Compound 920]	< 0.01	> 1

SMILES	IC50 (α4β7 integrin) [µM]	IC50 (α4β1 integrin) [µM]
CN(C)Cc1cnc(-c2cccc3c(C[C@H](NC(=O)C4(C(F)(F)F)CCN(CC(F)(F)F)CC4)C(=O)O)cccc23)c2ccccc12 [Compound 921]	< 0.01	0.1 to 1
CN(Cc1cnc(-c2cccc3c(C[C@H](NC(=O)C4(C(F)(F)F)CCN(CC(F)(F)F)CC4)C(=O)O)cccc23)c2ccccc12)CC(F)F [Compound 922]	0.01 to 0.1	> 1
COc1cc(CN2CCC(C)(C)CC2)cnc1-c1cccc2c(C[C@H](NC(=O)C3(C(F)(F)F)CCN(CC(F)F)CC3)C(=O)O)cccc12 [Compound 924]	< 0.01	> 1
COc1cc(CN2CCC(C(F)(F)F)CC2)cnc1-c1cccc2c(C[C@H](NC(=O)C3(C(F)(F)F)CCN(CC(F)F)CC3)C(=O)O)cccc12 [Compound 925]	< 0.01	> 1
CC1CCN(Cc2cnc(-c3cccc4c(C[C@H](NC(=O)C5(C(F)(F)F)CCN(CC(F)F)CC5)C(=O)O)cccc34)c3ccccc23)CCC1(F)F (stereo partly shown) [Compound 926]	< 0.01	> 1
COc1ccc(CN2CCC(F)(F)CC2)cc1-c1cccc2c(C[C@H](NC(=O)C3(C(F)(F)F)CCN(CC(F)F)CC3)C(=O)O)cccc12 [Compound 927]	< 0.01	0.1 to 1
COc1cc(CN2CCC(F)(F)CC2)cnc1-c1cccc2c(C[C@H](NC(=O)C3(C(F)(F)F)CCN(CC(F)F)CC3)C(=O)O)cccc12 [Compound 928]	< 0.01	> 1
CC[C@H]1CCCCN1Cc1cnc(-c2cccc3c(C[C@H](NC(=O)C4(C(F)(F)F)CCN(CC(F)(F)F)CC4)C(=O)O)cccc23)c2ccccc12 [Compound 929]	< 0.01	0.1 to 1
CC[C@H]1CCCCN1Cc1cnc(-c2cccc3c(C[C@H](NC(=O)C4(C(F)(F)F)CCN(CC(F)F)CC4)C(=O)O)cccc23)c2ccccc12 [Compound 930]	< 0.01	0.1 to 1
CC[C@@H]1CCCCN1Cc1cnc(-c2cccc3c(C[C@H](NC(=O)C4(C(F)(F)F)CCN(CC(F)(F)F)CC4)C(=O)O)cccc23)c2ccccc12 [Compound 931]	< 0.01	0.1 to 1
CC[C@H]1CCCN1Cc1cnc(-c2cccc3c(C[C@H](NC(=O)C4(C(F)(F)F)CCN(CC(F)(F)F)CC4)C(=O)O)cccc23)c2ccccc12 [Compound 933]	< 0.01	0.1 to 1
CC[C@H]1CCCN1Cc1cnc(-c2cccc3c(C[C@H](NC(=O)C4(C(F)(F)F)CCN(CC(F)F)CC4)C(=O)O)cccc23)c2ccccc12 [Compound 934]	< 0.01	0.1 to 1
CC[C@@H]1CCCN1Cc1cnc(-c2cccc3c(C[C@H](NC(=O)C4(C(F)(F)F)CCN(CC(F)(F)F)CC4)C(=O)O)cccc23)c2ccccc12 [Compound 935]	< 0.01	> 1
CC[C@@H]1CCCN1Cc1cnc(-c2cccc3c(C[C@H](NC(=O)C4(C(F)(F)F)CCN(CC(F)F)CC4)C(=O)O)cccc23)c2ccccc12 [Compound 936]	< 0.01	0.1 to 1
COc1ccc(CN2CCC(F)CC2)cc1-c1cccc2c(C[C@H](NC(=O)C3(C(F)(F)F)CCN(CC(F)F)CC3)C(=O)O)cccc12 [Compound 940]	< 0.01	0.1 to 1
COc1ccc(CN2CCC(C)(C)CC2)cc1-c1cccc2c(C[C@H](NC(=O)C3(C(F)(F)F)CCN(CC(F)F)CC3)C(=O)O)cccc12 [Compound 942]	< 0.01	0.1 to 1
COc1ccc(CN2CC[C@H](F)C2)cc1-c1cccc2c(C[C@H](NC(=O)C3(C(F)(F)F)CCN(CC(F)F)CC3)C(=O)O)cccc12 [Compound 943]	< 0.01	0.01 to 0.1
